# Columns and labels:
# [1] = tested on: EBV lytic genes; assay: EBV lytic gene induction in DOX-induced C17 dCas9-Tet-on-PUFa-p65HSF1 sgRNA cells; format: cell-based, Epstein-Barr virus (EBV)
# Procedure: SNU-719, C666-1 and C17 (nasopharyngeal carcinoma) cancer cells stably expressing HA-dCas9-EGFP and BZLF1 sgRNA3 were modified to inducibly express 3×FLAG-PUFa-p65HSF1 using a Tetracycline response element (Tet-On).
# dCas9-Tet on-p65HSF1-BZLF1sgRNA3 cell lines were produced as described previously. EBV reactivation, FACS, electrophoretic gel images, RT-PCR experiments, RNAscope in situ hybridization, growth proliferation assay and functional virion proliferation assay were conducted as described previously
# Producing HA-dCas9-EGFP-Tet-on PUFa-p65HSF1-BZLF1 sgRNA3-BRLF1sgRNA3 cell line. The day prior to transfection, HEK-293FT cells were seeded into a 10 cm culture dish at 70% density. […]. At 6 hours post-transfection, medium was exchanged for fresh. At 48 hour post-transfection, 5 mL of medium containing the lentivirus was collected and centrifuged for 10 minutes at 2,000 rpm to remove cellular debris. The supernatant was filtered through a 0.45-micron filter (Millipore), and the lentivirus was collected. […]
# [2] = tested on: EBV early proteins EA-D and PK; assay: BZLF1 and BRLF1 gRNA co-transfection in C666-1 cells, EBV lytic protein expression; format: cell-based, Epstein-Barr virus (EBV); conditions: cell lysate 48 hours post-transfection
# [3] = tested on: EBV-negative AKATA cells; assay: Functional virion proliferation assay; format: cell-based
# Procedure: Functional virion proliferation assay. SNU-719 HA-dCas9-Tet-on-PUFa-p65HSF1-BZLF1 gRNA (3) or C666-1 HA-dCas9-Tet-on-PUFa-p65HSF1-BZLF1 gRNA (A5) cells were seeded into 15 cm culture dish at 70% density the day before being treated with 1 μg/mL DOX. The supernatant was filtered utilizing a […] (Millipore), and virus was collected by ultra-centrifuged at 20,000 rpm for 4 hours at 4° C. and resuspended in 1:30 fresh medium. EBV negative AKATA cells were treated with the medium containing virus for 96 hours, and RNA samples were extracted for quantitative RT-PCR Analysis (FIG. 8J).
# [4] = tested on: C17 cells; assay: Growth proliferation, viability, apoptosis, cell cycle and clonogenic assays in C17 cells; format: cell-based
# Procedure: Growth proliferation assay. SNU-719 HA-dCas9-Tet-on-PUFa-p65HSF1-BZLF1 gRNA (3) or C666-1 HA-dCas9-Tet-on-PUFa-p65HSF1-BZLF1 gRNA (A5) cells were seeded into individual wells of a 96-well plate for at 1×10^5 cells per well the day before being treated with 1 μg/mL DOX and Ganciclovir (GCV). Cells were counted with the cell counting kit-8 (CCK-8, Sigma) at day 6, day 7, and day 8 (FIGS. 8H-8I).
# Active caspase-3 analysis. To detect the apoptosis in DOX treated dCas9-Tet on-p65HSF1-BZLF1sgRNA3 SNU719 and C17 cells, active caspase-3 apoptosis kit (BD Pharmingen #550914) was used. Untreated and treated cells were trypsinized and then fixed with fixation buffer in ice for 20 mins and washed with washing buffer twice. Cells were then stained with the PE conjugated rabbit anti active caspase-3 antibody in dark for 30 mins. Stained cells were collected with BD LSRFortessa.
# Cell cycle analysis. After 96 hours from induction of DOX, dCas9-Tet on-p65HSF1-BZLF1sgRNA3 SNU719 and C17 cells were trypsinized and then fixed with 75% cold ethanol for 2 hrs at −20° C. Cells were washed three times with cold PBS and then resuspended in PBS containing 100 μg/mL RNase A and 10 μg/mL propidium iodide for 10 min at room temperature. Stained cells were collected with BD LSRFortessa.
# Clonogenic assays. Cells were seeded at a density of 500 cells/well in 6-well plates the day before treatment. Then cells were stained with 0.5% crystal violet 14 days after treatment, and at least 50 cells were considered as a single colony
# [5] = tested on: BZLF1; assay: EBV reactivation by BZLF1 gRNA transfection (Casilio) in C666-1 cells stably expressing HA-dCas9-EGFP and 3×FLAG-PUFa-p65HSF1; format: cell-based, Epstein-Barr virus (EBV)
# Procedure: SNU-719 and C666-1 cells stably expressing HA-dCas9-EGFP and 3×FLAG-PUFa-p65HSF1 were cultivated in RPMI-1640 (Sigma) with 10% fetal bovine serum (FBS) (Gibco) and 1% GlutaMAX (Gibco) and cultured in 37° C. incubator with 5% CO2. EBV reactivation experiments were conducted with cells seeded into 6-well plates at 2×10^6 cells per well the day before transfection. 2 micrograms (μg) of control gRNA or individual BZLF1 gRNA (A3) (SEQ ID NO: 8), gRNA (A4) (SEQ ID NO: 9), gRNA (A5) (SEQ ID NO: 10), or gRNA (A6) (SEQ ID NO: 11) gRNAs were transfected into cells with Lipofectamine 2000 (Invitrogen). After transfection, cells were grown for 48 hours and harvested for protein extraction or FACS (FIGS. 4, 5, 7A-7E).
# FACS Analysis. Cells were harvested with trypsin and fixed for 15 minutes (mins) with 4% paraformaldehyde. The cells were then centrifuged at 2000×g for 5 mins and resuspended in 3% BSA for 30 mins. The resuspend cells were centrifuged again at 2000×g for 5 mins. Samples were stained with Alexa-647 conjugated anti-BZLF1 monoclonal antibody for 2 hours. Samples were analyzed on a FACSCalibur flow cytometer using CellQuest Pro software (BD Bioscience). Thousands of events were collected in each run.
# Quantitative RT-PCR Analysis. Cells were harvested with trypsin, centrifuged at top speed for 1 min, and RNA was extracted using TRIzol reagent (Invitrogen). 2 μg of total RNA was used to produce a cDNA library using Superscript III Reverse Transcriptase. SYBR Green gene expression assays (Roche) were performed using the GAPDH primers as endogenous control and primers targeting the EBV lytic genes BZLF1, BGLF4, BLRF2 were used to assess EBV reactivation. Power SYBR Green master mix was used for performing real-time quantitative PCR (RT-qPCR). Each reaction was performed with 2 μL of 1:3 diluted cDNA. The RT-qPCR samples were analyzed with a Roche LC480 PCR instrument. Gene expression levels were calculated by “delta Ct” algorithm and normalized to control samples.
substance,measurement,setting,value
"BZLF1 gRNA (A5): BZLF1 gRNA spacer sequence SEQ ID NO: 10, GAAACTATGCATGAGCCAC (chemistry not given here)","expression of other EBV lytic genes including BRLF1 (Rta), BGLF4 (PK), BFRF3 (VCAp18), BMRF1, BdRF1 and BLLF1",[1]; 1 μg/mL DOX,induces the expression of other EBV lytic genes
same,BZLF1 (Zta) reactivation,"[1]; 1 μg/mL Doxycycline (DOX), Example 10",reactivated BZLF1 (Zta)
same,"EBV reactivation, expression of the EBV early proteins EA-D and PK",[2],induce EBV reactivation
same,"infection of EBV-negative AKATA cells, EBV gene expression detectable (e.g. LMP1, EBER1, EBNA1, BZLF1, BRLF1)",[3]; supernatant from DOX treated C17 cells,able to infect the EBV-negative AKATA cells
same,"infection of EBV-negative AKATA cells, EBV gene expression detectable (e.g. LMP1, EBER1, EBNA1, BZLF1, BRLF1)",[3]; supernatant from DOX treated SNU-719 cells,able to infect the EBV-negative AKATA cells
same,infection of EBV-negative AKATA cells and EBV gene expression (e.g. EBER1),"[3]; supernatant from SNU-719 cells expressing HA-dCas9-EGFP, gRNA and 3×FLAG-PUFa-p65HSF1",able to infect and trigger the EBV gene expression
same,cell cycle by flow cytometry,"[4]; DOX induced, FIG. 17B",sub G1 phase accumulation and S phase decrease
same,"cell proliferation, apoptosis and growth of cells in vitro",[4]; DOX-induced EBV reactivation,"suppressed the cell proliferation, induced apoptosis, and slowed the growth of cells"
same,monolayer colony formation,"[4]; after DOX induction, FIG. 17E",dramatic suppression
same,"EBV reactivation, induction of BZLF1 (Zta) protein expression","[5]; C666-1, 2 μg gRNA, 48 hours after transfection, protein extraction or FACS",reactivate EBV expression at detectable levels
same,BZLF1 (ZTa) protein expression by immunostaining,"[5]; C666-1, FIG. 7D",activated BZLF1 (ZTa) protein expression
same,expression of the downstream EBV genes BGLF4 and BLRF2,"[5]; RT-qPCR, FIG. 7F, cell line not stated",induces the expression of the downstream EBV genes BGLF4 and BLRF2
